According to patent US20230085307A1, “PYRIDAZINONE COMPOUND AND HERBICIDE” (NISSAN CHEMICAL CORPORATION, priority 2019, published 2023):

Tests used:
lambsquarters [1] = assay: Test Example 4: herbicidal effect by soil treatment (Table 19, symbol O); type: in vivo, lambsquarters (Chenopodium album); settings: amount of applied herbicide 320 g/ha
How it was run: (§1)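 Soil-surface application: an emulsion agent diluted with water to the predetermined dose is sprayed uniformly over seeds lying under roughly 1.5 cm of sterilized diluvial soil. Boxes stay in a greenhouse at 25° C. to 30° C. Three weeks later, each species is graded on previously defined criteria.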

late watergrass [2] = assay: Test Example 1: herbicidal activity, application before weed generation under submerged conditions (Table 16, symbol A); type: in vivo, late watergrass (Echinochloa oryzicola); settings: amount of applied herbicide 320 g/ha
How it was run: (§2)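 Submerged Wagner pots (alluvial soil, 4 cm water) sown with weed seeds and planted with 2.5-leaf rice seedlings; emulsifiable concentrate diluted in water applied to water surface on sowing day. Held in greenhouse at 25-30 °C; injury scored 0-5 by herbicidal rate after three weeks.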

barnyard grass [3] = assay: Test Example 3: herbicidal effect by foliage application, Wagner pot (Table 18, symbol H); type: in vivo, barnyard grass (Echinochloa crus-galli); settings: for herbicidal effect on barnyard grass (H): 320 g/ha
How it was run: (§3)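 Plants were sown in alluvial soil held under 0.1–0.5 cm standing water and grown 14 days in a greenhouse at 25–30 °C. An emulsifiable formulation, water-diluted to the set dose, was then sprayed onto the foliage, and effects were scored three weeks later using previously defined criteria.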

green foxtail [4] = assay: Test Example 4: herbicidal effect by soil treatment (Table 19, symbol G); type: in vivo, green foxtail (Setaria viridis); settings: amount of applied herbicide 320 g/ha
How it was run: as §1

redroot pigweed [5] = assay: Test Example 4: herbicidal effect by soil treatment (Table 19, symbol N); type: in vivo, redroot pigweed (Amaranthus retroflexus); settings: amount of applied herbicide 320 g/ha
How it was run: as §1

rice flat sedge = assay: Test Example 3: herbicidal effect by foliage application, Wagner pot (Table 18, symbol E); type: in vivo, rice flat sedge (Cyperus iria); settings: for herbicidal effect on rice flat sedge (E): 320 g/ha
How it was run: as §3

oval-leafed pondweed [6] = assay: Test Example 2: herbicidal activity, application during weed generation under submerged conditions (Table 17, symbol C); type: in vivo, oval-leafed pondweed (Monochoria vaginalis); settings: AAH 320 g/ha; application during weed generation, submerged conditions
How it was run: (§4)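 Mixed weed seedlings in alluvial soil under a 4 cm water layer, greenhouse-grown at 25–30° C. Compound given as a diluted emulsion into the floodwater at the 1–2 leaf stage; response graded after three weeks.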

velvetleaf [7] = assay: Test Example 4: herbicidal effect by soil treatment (Table 19, symbol M); type: in vivo, velvetleaf (Abutilon theophrasti); settings: amount of applied herbicide 320 g/ha
How it was run: as §1

Japanese bulrush [8] = assay: Test Example 2: herbicidal activity, application during weed generation under submerged conditions (Table 17, symbol B); type: in vivo, Japanese bulrush (Schoenoplectus juncoides); settings: AAH 320 g/ha; application during weed generation, submerged conditions
How it was run: as §4

green foxtail [9] = assay: Test Example 5: herbicidal effect by foliage application, plastic box (Table 20, symbol G); type: in vivo, green foxtail (Setaria viridis); settings: foliage application, 320 g/ha, three weeks after application
How it was run: (§5)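 Sow seeds spot-wise in sterilized diluvial soil; cover with ~1.5 cm soil. Grow 14 days in greenhouse, 25° C. to 30° C. Spray foliage with emulsion diluted to predetermined amount. Rate effect after 3 weeks.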

lambsquarters [10] = assay: Test Example 5: herbicidal effect by foliage application, plastic box (Table 20, symbol O); type: in vivo, lambsquarters (Chenopodium album); settings: foliage application, 320 g/ha, three weeks after application
How it was run: as §5

oval-leafed pondweed [11] = assay: Test Example 1: herbicidal activity, application before weed generation under submerged conditions (Table 16, symbol C); type: in vivo, oval-leafed pondweed (Monochoria vaginalis); settings: amount of applied herbicide 320 g/ha
How it was run: as §2

southern crabgrass [12] = assay: Test Example 4: herbicidal effect by soil treatment (Table 19, symbol F); type: in vivo, southern crabgrass (Digitaria ciliaris); settings: amount of applied herbicide 320 g/ha
How it was run: as §1

southern crabgrass [13] = assay: Test Example 5: herbicidal effect by foliage application, plastic box (Table 20, symbol F); type: in vivo, southern crabgrass (Digitaria ciliaris); settings: foliage application, 320 g/ha, three weeks after application
How it was run: as §5

barnyard grass [14] = assay: Test Example 4: herbicidal effect by soil treatment (Table 19, symbol H); type: in vivo, barnyard grass (Echinochloa crus-galli); settings: amount of applied herbicide 320 g/ha
How it was run: as §1

Chinese sprangletop = assay: Test Example 3: herbicidal effect by foliage application, Wagner pot (Table 18, symbol D); type: in vivo, chinese sprangletop (Leptochloa chinensis); settings: for herbicidal effect on Chinese sprangletop (D): 320 g/ha
How it was run: as §3

late watergrass [15] = assay: Test Example 2: herbicidal activity, application during weed generation under submerged conditions (Table 17, symbol A); type: in vivo, late watergrass (Echinochloa oryzicola); settings: AAH 320 g/ha; application during weed generation, submerged conditions
How it was run: as §4

velvetleaf [16] = assay: Test Example 5: herbicidal effect by foliage application, plastic box (Table 20, symbol M); type: in vivo, velvetleaf (Abutilon theophrasti); settings: foliage application, 320 g/ha, three weeks after application
How it was run: as §5

redroot pigweed [17] = assay: Test Example 5: herbicidal effect by foliage application, plastic box (Table 20, symbol N); type: in vivo, redroot pigweed (Amaranthus retroflexus); settings: foliage application, 320 g/ha, three weeks after application
How it was run: as §5

Japanese bulrush [18] = assay: Test Example 1: herbicidal activity, application before weed generation under submerged conditions (Table 16, symbol B); type: in vivo, Japanese bulrush (Schoenoplectus juncoides); settings: amount of applied herbicide 320 g/ha
How it was run: as §2

windgrass = assay: Test Example 5: herbicidal effect by foliage application, plastic box (Table 20, symbol L); type: in vivo, windgrass (Apera spica-venti); settings: foliage application, 320 g/ha, three weeks after application
How it was run: as §5

Italian ryegrass = assay: Test Example 5: herbicidal effect by foliage application, plastic box (Table 20, symbol K); type: in vivo, Italian ryegrass (Lolium multiflorum); settings: foliage application, 320 g/ha, three weeks after application
How it was run: as §5

blackgrass = assay: Test Example 5: herbicidal effect by foliage application, plastic box (Table 20, symbol J); type: in vivo, blackgrass (Alopecurus myosuroides); settings: foliage application, 320 g/ha, three weeks after application
How it was run: as §5

wild oat = assay: Test Example 5: herbicidal effect by foliage application, plastic box (Table 20, symbol I); type: in vivo, wild oat (Avena fatua); settings: foliage application, 320 g/ha, three weeks after application
How it was run: as §5

persian speedwell = assay: Test Example 5: herbicidal effect by foliage application, plastic box (Table 20, symbol R); type: in vivo, Persian speedwell (Veronica persica); settings: foliage application, 320 g/ha, three weeks after application
How it was run: as §5

barnyard grass [19] = assay: Test Example 5: herbicidal effect by foliage application, plastic box (Table 20, symbol H); type: in vivo, barnyard grass (Echinochloa crus-galli); settings: foliage application, 320 g/ha, three weeks after application
How it was run: as §5

[20] = amount of applied herbicide 320 g/ha

Compound	Herbicidal effect, A: late watergrass (late watergrass [2])	herbicidal effect rating, C: oval-leafed pondweed (oval-leafed pondweed [6])	herbicidal effect rating, B: Japanese bulrush (Japanese bulrush [8])	Herbicidal effect, C: oval-leafed pondweed (oval-leafed pondweed [11])	herbicidal effect rating, A: late watergrass (late watergrass [15])	Herbicidal effect, B: Japanese bulrush (Japanese bulrush [18])	herbicidal effect on barnyard grass (H) (barnyard grass [3])	herbicidal effect on rice flat sedge (E) (rice flat sedge)	herbicidal effect on windgrass (L) (windgrass)	herbicidal effect on Italian ryegrass (K) (Italian ryegrass)	herbicidal effect on green foxtail (G) (green foxtail [9])	herbicidal effect on blackgrass (J) (blackgrass)	herbicidal effect on wild oat (I) (wild oat)	herbicidal effect on lambsquarters (O) (lambsquarters [10])	herbicidal effect on persian speedwell (R) (persian speedwell)	herbicidal effect on southern crabgrass (F) (southern crabgrass [13])	herbicidal effect on barnyard grass (H) (barnyard grass [19])	herbicidal effect on Chinese sprangletop (D) (Chinese sprangletop)	herbicidal effect on velvetleaf (M) (velvetleaf [16])	further results
COc1ccc2sc(-c3ccc(Cl)cc3)c(-c3c(O)c(C)nn(C)c3=O)c2c1 [2-450]	2 (Herbicidal rate of 20% or more and less than 40%)	0 (Herbicidal rate of 5% or less (almost no effect))	2 (Herbicidal rate of 20% or more and less than 40%)	0 (Herbicidal rate of 5% or less (almost no effect))	3 (Herbicidal rate of 40% or more and less than 70%)	3 (Herbicidal rate of 40% or more and less than 70%)														herbicidal effect, O: lambsquarters (lambsquarters [1]): 2 (Herbicidal rate of 20% or more and less than 40%); herbicidal effect on H: barnyard grass (barnyard grass [3]; [20]): 3 (Herbicidal rate of 40% or more and less than 70%); herbicidal effect, G: green foxtail (green foxtail [4]): 0 (Herbicidal rate of 5% or less (almost no effect)); herbicidal effect, N: redroot pigweed (redroot pigweed [5]): 3 (Herbicidal rate of 40% or more and less than 70%); herbicidal effect on E: rice flat sedge (rice flat sedge; [20]): 5 (Herbicidal rate of 90% or more (almost completely withered)); herbicidal effect, M: velvetleaf (velvetleaf [7]): 0 (Herbicidal rate of 5% or less (almost no effect)); G: green foxtail, herbicidal effect grade (green foxtail [9]): 0 (Herbicidal rate of 5% or less (almost no effect)); O: lambsquarters, herbicidal effect grade (lambsquarters [10]): 5 (Herbicidal rate of 90% or more (almost completely withered)); herbicidal effect, F: southern crabgrass (southern crabgrass [12]): 0 (Herbicidal rate of 5% or less (almost no effect)); F: southern crabgrass, herbicidal effect grade (southern crabgrass [13]): 0 (Herbicidal rate of 5% or less (almost no effect)); herbicidal effect, H: barnyard grass (barnyard grass [14]): 0 (Herbicidal rate of 5% or less (almost no effect)); herbicidal effect on D: Chinese sprangletop (Chinese sprangletop; [20]): 0 (Herbicidal rate of 5% or less (almost no effect)); M: velvetleaf, herbicidal effect grade (velvetleaf [16]): 5 (Herbicidal rate of 90% or more (almost completely withered)); N: redroot pigweed, herbicidal effect grade (redroot pigweed [17]): 5 (Herbicidal rate of 90% or more (almost completely withered))
CCCC(=O)Oc1c(C)nn(C)c(=O)c1-c1c(-c2ccccc2OC)sc2cc(C)c(C)cc12 [5-091]	3 (Herbicidal rate of 40% or more and less than 70%)	3 (Herbicidal rate of 40% or more and less than 70%)	2 (Herbicidal rate of 20% or more and less than 40%)	3 (Herbicidal rate of 40% or more and less than 70%)	3 (Herbicidal rate of 40% or more and less than 70%)	3 (Herbicidal rate of 40% or more and less than 70%)	4 (Herbicidal rate of 70% or more and less than 90%)	3 (Herbicidal rate of 40% or more and less than 70%)	4 (Herbicidal rate of 70% or more and less than 90%)	4 (Herbicidal rate of 70% or more and less than 90%)	3 (Herbicidal rate of 40% or more and less than 70%)	4 (Herbicidal rate of 70% or more and less than 90%)	0 (Herbicidal rate of 5% or less (almost no effect))	3 (Herbicidal rate of 40% or more and less than 70%)	3 (Herbicidal rate of 40% or more and less than 70%)	2 (Herbicidal rate of 20% or more and less than 40%)	3 (Herbicidal rate of 40% or more and less than 70%)	4 (Herbicidal rate of 70% or more and less than 90%)	4 (Herbicidal rate of 70% or more and less than 90%)	
CCCC(=O)Oc1c(C)nn(C)c(=O)c1-c1c(-c2ccc(F)cc2OC)sc2cc(C)c(C)cc12 [5-102]	4 (Herbicidal rate of 70% or more and less than 90%)	2 (Herbicidal rate of 20% or more and less than 40%)	3 (Herbicidal rate of 40% or more and less than 70%)	2 (Herbicidal rate of 20% or more and less than 40%)	3 (Herbicidal rate of 40% or more and less than 70%)	3 (Herbicidal rate of 40% or more and less than 70%)	4 (Herbicidal rate of 70% or more and less than 90%)	3 (Herbicidal rate of 40% or more and less than 70%)	2 (Herbicidal rate of 20% or more and less than 40%)	3 (Herbicidal rate of 40% or more and less than 70%)	0 (Herbicidal rate of 5% or less (almost no effect))	3 (Herbicidal rate of 40% or more and less than 70%)	0 (Herbicidal rate of 5% or less (almost no effect))	3 (Herbicidal rate of 40% or more and less than 70%)	3 (Herbicidal rate of 40% or more and less than 70%)	1 (Herbicidal rate of 5% or more and less than 20%)	1 (Herbicidal rate of 5% or more and less than 20%)	4 (Herbicidal rate of 70% or more and less than 90%)	3 (Herbicidal rate of 40% or more and less than 70%)	
